In US9637491B2, “Pyrazolo[4,3-D]pyrimidines as kinase inhibitors” (Origenis GmbH, priority 2012, dated 2017):
pIC50: −log10 of the molar value.

Biological target: T1, SYK kinase (Homo sapiens, UniProt P43405)
T1 construct: purchased Invitrogen, Carlsbad
Experiment: SYK assay (OMNIA Kinase Assay, Invitrogen)
Type: biochemical
Conditions: SYK Activities; 1 mM ATP, 10 μM Omnia Peptide Substrate Tyr 7, 30° C.
How it was run: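 SYK was added last to start phosphorylation of a chelation-enhanced SOX peptide substrate (10 μM) in the presence of 1 mM ATP and 0.2 mM DTT at 30° C. Kinetic readings at λex 360/λem 485 nm over 30 min gave velocities, fitted sigmoidally against compound concentration to give IC50.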

| SMILES | pIC50 |
| --- | --- |
| O=C(c1ccc(Nc2nc(C3CCC3)nc3cn[nH]c23)cc1F)N1CCOCC1 [Example 193, (4-((5-cyclobutyl-1H-pyrazolo[4,3-d]pyrimidin-7-yl)amino)-2-fluorophenyl)(morpholino)methanone] | 6.00 to 7.00 |
| c1ccc(-n2cc(Nc3nc(-c4ccoc4)nc4cn[nH]c34)cn2)nc1 [Example 484, 5-(furan-3-yl)-N-(1-(pyridin-2-yl)-1H-pyrazol-4-yl)-1H-pyrazolo[4,3-d]pyrimidin-7-amine] | 6.00 to 7.00 |
| COCCn1cc(Nc2nc(-c3ccoc3)nc3cn[nH]c23)cn1 [Example 199, 5-(furan-3-yl)-N-(1-(2-methoxyethyl)-1H-pyrazol-4-yl)-1H-pyrazolo[4,3-d]pyrimidin-7-amine] | 6.00 to 7.00 |
| COCCn1ccc(Nc2nc(C3CC3)nc3cn[nH]c23)cc1=O [Example 231, 4-((5-cyclopropyl-1H-pyrazolo[4,3-d]pyrimidin-7-yl)amino)-1-(2-methoxyethyl)pyridin-2(1H)-one] | 6.00 to 7.00 |
| OCCn1cc(Nc2nc(-c3ncco3)nc3cn[nH]c23)cn1 [Example 253, 2-(4-((5-(oxazol-2-yl)-1H-pyrazolo[4,3-d]pyrimidin-7-yl)amino)-1H-pyrazol-1-yl)ethan-1-ol] | 6.00 to 7.00 |
| Fc1ccccc1-c1nc(Nc2ccc(N3CCOCC3)c(F)c2)c2[nH]ncc2n1 [Example 24, N-(3-fluoro-4-morpholinophenyl)-5-(2-fluorophenyl)-1H-pyrazolo[4,3-d]pyrimidin-7-amine] | 6.00 to 7.00 |
| O=C(c1ccc(Nc2nc(-c3ccco3)nc3cn[nH]c23)cc1F)N1CCOCC1 [Example 197, (2-fluoro-4-((5-(furan-2-yl)-1H-pyrazolo[4,3-d]pyrimidin-7-yl)amino)phenyl)(morpholino)methanone] | 6.00 to 7.00 |
| CN(C)C(=O)Cn1cc(Nc2nc(-c3ccco3)nc3cn[nH]c23)cn1 [Example 452, 2-(4-((5-(furan-2-yl)-1H-pyrazolo[4,3-d]pyrimidin-7-yl)amino)-1H-pyrazol-1-yl)-N,N-dimethylacetamide] | 6.00 to 7.00 |
| CN1CCC(n2cc(Nc3nc(-c4ncco4)nc4cn[nH]c34)cn2)CC1 [Example 255, N-(1-(1-methylpiperidin-4-yl)-1H-pyrazol-4-yl)-5-(oxazol-2-yl)-1H-pyrazolo[4,3-d]pyrimidin-7-amine] | 6.00 to 7.00 |
| CC(C)Cn1cc(Nc2nc(-c3c(F)cccc3F)nc3cn[nH]c23)cn1 [Example 440, 5-(2,6-difluorophenyl)-N-(1-isobutyl-1H-pyrazol-4-yl)-1H-pyrazolo[4,3-d]pyrimidin-7-amine] | 6.00 to 7.00 |
| CN1C(=O)COc2ccc(Nc3nc(C4CC4)nc4cn[nH]c34)cc21 [Example 497, 6-((5-cyclopropyl-1H-pyrazolo[4,3-d]pyrimidin-7-yl)amino)-4-methyl-2H-benzo[b][1,4]oxazin-3(4H)-one] | 6.00 to 7.00 |
| CC(C)Cn1cc(Nc2nc(-c3ncco3)nc3cn[nH]c23)cn1 [Example 252, N-(1-isobutyl-1H-pyrazol-4-yl)-5-(oxazol-2-yl)-1H-pyrazolo[4,3-d]pyrimidin-7-amine] | 6.00 to 7.00 |
| COc1ccc(Nc2nc(-c3c(F)cccc3Cl)nc3cn[nH]c23)cc1OC [Example 513, 5-(2-chloro-6-fluorophenyl)-N-(3,4-dimethoxyphenyl)-1H-pyrazolo[4,3-d]pyrimidin-7-amine] | 6.00 to 7.00 |
| CC(=O)Nc1cc(Nc2nc(-c3c(F)cccc3F)nc3cn[nH]c23)ccc1N1CCN(C(C)=O)CC1 [Example 538, N-(2-(4-acetylpiperazin-1-yl)-5-((5-(2,6-difluorophenyl)-1H-pyrazolo[4,3-d]pyrimidin-7-yl)amino)phenyl)acetamide] | 6.00 to 7.00 |
| CC(=O)N1CCC(n2cc(Nc3nc(-c4cccc(S(N)(=O)=O)c4)nc4cn[nH]c34)cn2)CC1 [Example 427, 3-(7-((1-(1-acetylpiperidin-4-yl)-1H-pyrazol-4-yl)amino)-1H-pyrazolo[4,3-d]pyrimidin-5-yl)benzenesulfonamide] | 6.00 to 7.00 |
| O=C(c1ccc(Nc2nc(C3CC3)nc3cn[nH]c23)cc1F)N1CCOCC1 [Example 208, (4-((5-cyclopropyl-1H-pyrazolo[4,3-d]pyrimidin-7-yl)amino)-2-fluorophenyl)(morpholino)methanone] | 6.00 to 7.00 |
| COCCn1cc(-c2nc(Nc3ccc(N4CCOCC4)cc3)c3[nH]ncc3n2)cn1 [Example 393, 5-(1-(2-methoxyethyl)-1H-pyrazol-4-yl)-N-(4-morpholinophenyl)-1H-pyrazolo[4,3-d]pyrimidin-7-amine] | 6.00 to 7.00 |
| COCCCn1cc(Nc2nc(-c3ncco3)nc3cn[nH]c23)cn1 [Example 251, N-(1-(3-methoxypropyl)-1H-pyrazol-4-yl)-5-(oxazol-2-yl)-1H-pyrazolo[4,3-d]pyrimidin-7-amine] | 6.00 to 7.00 |
| COCCn1cc(Nc2nc(C3CCC3)nc3cn[nH]c23)cn1 [Example 191, 5-cyclobutyl-N-(1-(2-methoxyethyl)-1H-pyrazol-4-yl)-1H-pyrazolo[4,3-d]pyrimidin-7-amine] | 7.00 to 8.00 |
| c1ccc(Sc2ccc(Nc3nc(-c4ccc5cn[nH]c5c4)nc4cn[nH]c34)cc2)cc1 [Example 515, 5-(1H-indazol-6-yl)-N-(4-(phenylthio)phenyl)-1H-pyrazolo[4,3-d]pyrimidin-7-amine] | 6.00 to 7.00 |
| COCCCn1cc(Nc2nc(-c3cnn(C)c3)nc3cn[nH]c23)cn1 [Example 436, N-(1-(3-methoxypropyl)-1H-pyrazol-4-yl)-5-(1-methyl-1H-pyrazol-4-yl)-1H-pyrazolo[4,3-d]pyrimidin-7-amine] | 6.00 to 7.00 |

The next lines start with the values.

| pIC50 | SMILES |
| --- | --- |
| 7.00 to 8.00 | CC(C)n1cc(Nc2nc(-c3cccc(S(N)(=O)=O)c3)nc3cn[nH]c23)cn1 [Example 426, 3-(7-((1-isopropyl-1H-pyrazol-4-yl)amino)-1H-pyrazolo[4,3-d]pyrimidin-5-yl)benzenesulfonamide] |
| 7.00 to 8.00 | c1nn(C2CC2)cc1Nc1nc(C2CC2)nc2cn[nH]c12 [Example 282, 5-cyclopropyl-N-(1-cyclopropyl-1H-pyrazol-4-yl)-1H-pyrazolo[4,3-d]pyrimidin-7-amine] |
| 7.00 to 8.00 | Oc1c(Cl)cc(Nc2nc(-c3c(F)cccc3F)nc3cn[nH]c23)cc1Cl [Example 540, 2,6-dichloro-4-((5-(2,6-difluorophenyl)-1H-pyrazolo[4,3-d]pyrimidin-7-yl)amino)phenol] |
| 7.00 to 8.00 | COc1ccc(Nc2nc(-c3sccc3C)nc3cn[nH]c23)cc1OC [Example 51, N-(3,4-dimethoxyphenyl)-5-(3-methylthiophen-2-yl)-1H-pyrazolo[4,3-d]pyrimidin-7-amine] |
| 7.00 to 8.00 | COC(=O)c1cccc(-c2nc(Nc3cnn(C4CCOCC4)c3)c3[nH]ncc3n2)c1 [Example 216, methyl 3-(7-((1-(tetrahydro-2H-pyran-4-yl)-1H-pyrazol-4-yl)amino)-1H-pyrazolo[4,3-d]pyrimidin-5-yl)benzoate] |
| 7.00 to 8.00 | c1nn(C2CC2)cc1Nc1nc(C2CCC2)nc2cn[nH]c12 [Example 267, 5-cyclobutyl-N-(1-cyclopropyl-1H-pyrazol-4-yl)-1H-pyrazolo[4,3-d]pyrimidin-7-amine] |
| 7.00 to 8.00 | c1cncc(-c2cccc(-c3nc(Nc4cnn(C5CCNC5)c4)c4[nH]ncc4n3)c2)c1 (centres unmarked) [Example 465, 5-(3-(pyridin-3-yl)phenyl)-N-(1-(pyrrolidin-3-yl)-1H-pyrazol-4-yl)-1H-pyrazolo[4,3-d]pyrimidin-7-amine] |
| 7.00 to 8.00 | CN1CCC(n2cc(Nc3nc(-c4ccc5cn[nH]c5c4)nc4cn[nH]c34)cn2)CC1 [Example 132, 5-(1H-indazol-6-yl)-N-(1-(1-methylpiperidin-4-yl)-1H-pyrazol-4-yl)-1H-pyrazolo[4,3-d]pyrimidin-7-amine] |
| 7.00 to 8.00 | CC(C)Cn1cc(Nc2nc(-c3cnn(C)c3)nc3cn[nH]c23)cn1 [Example 437, N-(1-isobutyl-1H-pyrazol-4-yl)-5-(1-methyl-1H-pyrazol-4-yl)-1H-pyrazolo[4,3-d]pyrimidin-7-amine] |
| > 8.00 | c1cc(-c2nc(Nc3ccc(N4CCOCC4)cc3)c3[nH]ncc3n2)on1 [Example 69, 5-(isoxazol-5-yl)-N-(4-morpholinophenyl)-1H-pyrazolo[4,3-d]pyrimidin-7-amine] |
| 7.00 to 8.00 | OCCn1cc(Nc2nc(-c3ccc4cn[nH]c4c3)nc3cn[nH]c23)cn1 [Example 476, 2-(4-((5-(1H-indazol-6-yl)-1H-pyrazolo[4,3-d]pyrimidin-7-yl)amino)-1H-pyrazol-1-yl)ethan-1-ol] |
| 7.00 to 8.00 | COCC(COC)n1cc(Nc2nc(-c3ccc4cn[nH]c4c3)nc3cn[nH]c23)cn1 [Example 448, N-(1-(1,3-dimethoxypropan-2-yl)-1H-pyrazol-4-yl)-5-(1H-indazol-6-yl)-1H-pyrazolo[4,3-d]pyrimidin-7-amine] |
| 7.00 to 8.00 | OCCn1cc(Nc2nc(-c3cocn3)nc3cn[nH]c23)cn1 [Example 247, 2-(4-((5-(oxazol-4-yl)-1H-pyrazolo[4,3-d]pyrimidin-7-yl)amino)-1H-pyrazol-1-yl)ethan-1-ol] |
| 7.00 to 8.00 | O=C1COc2ccc(Nc3nc(C4CC4)nc4cn[nH]c34)cc2N1 [Example 21, 6-((5-cyclopropyl-1H-pyrazolo[4,3-d]pyrimidin-7-yl)amino)-2H-benzo[b][1,4]oxazin-3(4H)-one] |
| 7.00 to 8.00 | CC(=O)N1CCC(n2cc(Nc3nc(C4CCC4)nc4cn[nH]c34)cn2)CC1 [Example 205, 1-(4-(4-((5-cyclobutyl-1H-pyrazolo[4,3-d]pyrimidin-7-yl)amino)-1H-pyrazol-1-yl)piperidin-1-yl)ethan-1-one] |
| 7.00 to 8.00 | c1cc(N2CCOCC2)ccc1Nc1nc(-c2cn[nH]c2)nc2cn[nH]c12 [Example 394, N-(4-morpholinophenyl)-5-(1H-pyrazol-4-yl)-1H-pyrazolo[4,3-d]pyrimidin-7-amine] |
| 7.00 to 8.00 | CC(C)(O)Cn1cc(Nc2nc(-c3ccc4cn[nH]c4c3)nc3cn[nH]c23)cn1 [Example 449, 1-(4-((5-(1H-indazol-6-yl)-1H-pyrazolo[4,3-d]pyrimidin-7-yl)amino)-1H-pyrazol-1-yl)-2-methylpropan-2-ol] |
